Results taken from patent US20100105641A1, “Oral Contraceptive Spray” (priority 2006, published 2010).

Tests used:
[1] = human, in vivo
Description: Sixteen healthy female subjects were treated with 0.1 ml of the oral spray as described in Example 1 or with Marvelon® tablets (150 μg desogestrel, 30 μg ethinyl estradiol) in a cross over design. The spray was administered sublingually. Marvelon® was ingested. Serum concentration versus time profiles were obtained for etonogestrel and plasma concentration versus time profiles were obtained for ethinyl estradiol. FIGS. 2, 3, 4 and 5 show the average values of the serum/plasma concentrations versus time profiles.
This leads to the conclusion that a lower dose of either etonogestrel, or ethinyl estradiol, or both is possible for oral mucosal administration.

[2] = Cross-over study in sixteen healthy female subjects: sublingual oral spray (75 μg etonogestrel) vs ingested Cerazette tablets, serum concentration versus time profiles; format: in vivo, human; details: FIGS. 6 and 7; 75 μg etonogestrel spray vs Cerazette tablet
Description: Sixteen healthy female subjects were treated with 0.1 ml of oral spray comprising the liquid as depicted in table 6 to administer 75 μg etonogestrel, or with Cerazette® tablets (75 μg desogestrel) in a cross over design. The spray has been administered sublingually. Cerazette® has been ingested. Serum concentration versus time profiles were obtained for etonogestrel.
This leads to the conclusion that a lower dose of either etonogestrel is possible for oral mucosal administration to achieve a similar pharmacological effect.

[3] = exposure of etonogestrel after oral ingestion as its prodrug desogestrel; cited from earlier work
[4] = Description: Solutions were prepared essentially according to the procedure as described in Example 1. The solubility of each one of the active ingredients desogestrel, 3-β-hydroxydesogestrel, 3-keto desogestrel and ethinyl estradiol in these solutions was tested.

Compound: C#C[C@]1(O)CC[C@H]2[C@@H]3CCC4=CC(=O)CC[C@@H]4[C@H]3C(=C)C[C@@]21CC [Etonogestrel, 13-ethyl-11methylene-17β-hydroxy-18,19-dinor-17α-pregnen-3-one]
- levels of etonogestrel in serum, oral mucosal administration compared to oral ingestion of equivalent amount of desogestrel using a tablet [1]: much higher levels
- levels of etonogestrel in serum, oral mucosal administration compared to oral ingestion of an equivalent amount of desogestrel using a tablet [2]: much higher levels
- oral bioavailability [3]: about 80%

Compound: C#C[C@]1(O)CC[C@H]2[C@@H]3CCC4=C[C@@H](O)CC[C@@H]4[C@H]3C(=C)C[C@@]21CC [3-β-Hydroxy-desogestrel, 3-β-hydroxydesogestrel]
- Solubility in Liquid 1 [4]: ≧8.8 mg/mL
- Solubility in Liquid 2 [4]: ≧7.0 mg/mL
- Solubility in Liquid 3 [4]: ≧6.1 mg/mL
- Solubility in Liquid 4 [4]: ≧6.9 mg/mL
- Solubility in Liquid 5 [4]: ≧8.7 mg/mL

Compound: C#C[C@]1(O)CC[C@H]2[C@@H]3CCc4cc(O)ccc4[C@H]3CC[C@@]21C [Ethinyl Estradiol, ethinyl estradiol]
- levels of ethinyl estradiol in plasma, oral mucosal administration compared to oral ingestion of equivalent amount using a tablet [1]: much higher levels
